Data as given in US11234436B2, “Method for controlling non-crop pests” (BASF Agrochemical Products B.V., priority 2015, dated 2022).

System: German Cockroach (Blattella germanica)
Test: Test 1: activity against German cockroach, treated glass vial contact, mortality
Type: in vivo
Settings: alone, 1 h exposure in treated vial
Procedure: Test 1. Activity Against German Cockroach (Blattella germanica)
Glass vials were treated with 445 μl of varying concentrations of the technical grade active ingredient dissolved in acetone. Vials were turned on their sides and placed on an automated roller table. The vials were rolled (6 rpm) uncapped to allow an even coating of the treatment. Each treatment was replicated five times.
Prior to infestation, cockroaches were incapacitated using carbon dioxide (CO2). Approximately 6 insects were transferred with featherweight, broad tip forceps into treated vials, and held in an environmental chamber at 27° C. and 80% relative humidity for one hour. Following this exposure period, a small amount of CO2 was used to incapacitate the insects facilitating removal from treated vials. Insects were then transferred to 16 oz plastic holding containers provisioned with a small piece of dry cat food and a cotton wick moistened with water, and returned to the environmental chamber. Mortality was assessed at 1, 2, and 3 days after exposure (DAE).

## CC1(C)C(C=C(Cl)Cl)C1C(=O)OC(C#N)c1cccc(Oc2ccccc2)c1 (stereo not drawn) [Alphacypermethrin, alpha-cypermethrin]
Test Mixture 1.4, 1.96 ppm
  Average Control %: 0%

## CCOCn1c(-c2ccc(Cl)cc2)c(C#N)c(Br)c1C(F)(F)F [Chlorfenapyr, chlorfenapyr]
Test Mixture 1.3, 100 ppm
  Average Control %: 3.3%

## CN(C(=O)c1ccccc1)c1cccc(C(=O)Nc2c(Br)cc(C(F)(C(F)(F)F)C(F)(F)F)cc2C(F)(F)F)c1F [Compound i) of formula (I), broflanilide]
Mixture 1.1, 9.2 ppm
  Average Control %: 10%
Test Mixture 1.2, 10 ppm
  Average Control %: 10%
Test Mixture 1.3, 9.5 ppm
  Average Control %: 26.7%
Test Mixture 1.4, 9.5 ppm
  Average Control %: 46.7%

## CN/C(=N/CC1CCOC1)N[N+](=O)[O-] (centres unmarked) [Dinotefuran, dinotefuran]
Mixture 1.1, 2.6 ppm
  Average Control %: 16.7%
Test Mixture 1.2, 4.1 ppm
  Average Control %: 30%
